Data reported in patent US4874779A, “Mitomycin phosphate derivatives” (priority 1988, dated 1989).
Counter-ions that a name gives are not always drawn. Like-named read-outs stand apart in the source and are kept apart here.

Legend:
[1] = system: human lung tumor cell line H2981; assay: Cytotoxicity to H2981 cells by inhibition of 3H-Thy incorporation; type: cell-based; settings: for cytotoxic activity (in words): without alkaline phosphatase pre-treatment; for IC50: Homo sapiens
Experimental: Cytotoxicity of compounds V, IIa, and mitomycin C was determined using human lung tumor cell line H2981. Thus a suspension of H2981 cells in Iscove's medium (IMDM) containing 10% fetal calf serum were plated into 96-well microtiter plates (10,000 cells/well). After 1 hr, the medium was removed, a pH 7.2 phosphate buffered saline solution (PBS) of the drug was added, and incubation at 37° C. was commenced for 1 hour. The cells were then washed twice, and incubation was continued an additional 17 hours, followed by a 6 hour pulse with ^3 H-Thy (1.0 μCi/well). The plates were frozen at -70° C. to detach the cells, and the cells were harvested onto glass fiber discs. The filters were counted on a Beckman 3701 scintillation counter. Inhibition of ^3 H-Thy incorporation was used as an indicator for cytotoxic effects.

[2] = system: human lung tumor H2981; assay: Antitumor activity against subcutaneous human lung tumor H2981 xenograft in Balb C nu/nu female mice; type: in vivo; settings: for time required to reach an average tumor volume of 750 mm^3: IIa 0.2 ml of 1 mg/ml, V 0.2 ml of 3 mg/ml, i.p. days 15, 21, 31, 37, untreated control 27 days
Experimental: The arrows indicate the days on which drugs were given.
Antitumor activity of the compound of Example 1 (V) was evaluated in Balb C nu/nu female mice (4-6 weeks old, purchased from Life Sciences, St. Petersburg, Fl) implanted subcutaneously with a xenograft of human lung tumor H2981 in the right hind flank. Compound IIa served as positive control. Drug treatment was initiated on day 15 (day 0 being the day of tumor implant) when the tumors were approximately 100 mm^3 in volume. 0.2 Ml of the test compounds (1 mg/ml for IIa and 3 mg/ml for V in phosphate-buffered saline) were injected intraperitoneally on days 15, 21, 31, and 37. The results are graphically shown in FIG. 1 and indicate that the time required to reach an average tumor volume of 750 mm^3 was 45 days in mice treated with IIa, 63 days in mice treated with V, and 27 days in the untreated control group.

[3] = Relative toxicity in Balb C nu/nu mice; type: in vivo; settings: for LD50 / MTD at 600 h: mouse, in vivo, ip; for LD50: two equal doses spaced 4 days apart; for MTD at 600 h: 4 equal doses over a 25 day period, read-out: total amount tolerated
Experimental: The relative toxicities of IIa and V were determined in Balb C nu/nu mice. […] Total amounts of up to 40 mg/kg of IIa and 100 mg/kg of V were tolerated if given in 4 equal doses over a 25 day period.

Row | SMILES | cytotoxic activity (in words) ([1]; H2981 cells) | IC50 ([1]; H2981, 1 h, pH 7.2, read-out: IC50 (cytotoxicity, inhibition of 3H-Thy incorporation)) | time required to reach an average tumor volume of 750 mm^3 [2] | LD50 [3] | MTD at 600 h [3] | cytotoxicity after pre-treatment with alkaline phosphatase (in words) ([1]; H2981 cells, V pre-treated with alkaline phosphatase) | antitumor effect compared with the corresponding alcohol (IIa) ([2]; H2981 xenograft, i.p.) | tolerability of prodrug (in words) ([3]; relative to IIa) | IC50 ([1]; H2981 cells, 1 hour drug exposure in pH 7.2 PBS at 37° C., 17 hours further incubation, 6 hour 3H-Thy pulse, read-out: IC50 (cytotoxicity, inhibition of 3H-Thy incorporation))
1 | COC12C(COC(N)=O)C3=C(C(=O)C(C)=C(NCCO)C3=O)N1CC1NC12 (centres unmarked) [IIa] | highly cytotoxic | ~1000 nM | 45 days | 45 mg/kg | ≥ 40 mg/kg | – | – | – | –
2 | COC12C(COC(N)=O)C3=C(C(=O)C(C)=C(NCCOP(=O)(O)O)C3=O)N1CC1NC12 (centres unmarked) [Example 1, 9a-Methoxy-7-[[(phosphonooxy)ethyl]amino]mitosane disodium salt] | A small amount of cytotoxic activity | – | 63 days | 90 mg/kg | ≤ 100 mg/kg | cytotoxicity comparable to that of IIa and mitomycin C | stronger antitumor effect than the corresponding alcohol | significantly more prodrug was tolerated because of its reduced toxicity | –
3 | CO[C@@]12[C@H](COC(N)=O)C3=C(C(=O)C(C)=C(N)C3=O)N1C[C@@H]1N[C@@H]12 [mitomycin C] | highly cytotoxic | – | – | – | – | – | – | – | ~1000 nM
